The source of these data is PMC4186431 (Pharmacology Research & Perspectives, 2013).

In series [1] the test system is mouse hippocampal slices. The arrangement: method as in Costa et al. [2012]. Particulars: ref Costa et al. [2012]; cited from earlier work.
Details of series [2]: method as in Hedlund et al. [2010]. Particulars: mice; ref Hedlund et al. [2010]; cited from earlier work.
Series [3] deals with T1, human 5-HT7(a) receptor (Homo sapiens, UniProt P34969). Description: Whole-cell [^3H]-SB-269970 radioligand binding (preincubation/washout experiments). Particulars: for inhibition at 10 µM: read-out: Inhibition of specific binding of [^3H]-SB-269970 after preincubation and washout, 10 μmol/L, 30 min at 37°C, time t = 0 after washout. The protocol: After incubation for 30 min at 37°C, the assay was stopped, as previously described.
T1 sequence (P34969 1-445 isoform P34969-2): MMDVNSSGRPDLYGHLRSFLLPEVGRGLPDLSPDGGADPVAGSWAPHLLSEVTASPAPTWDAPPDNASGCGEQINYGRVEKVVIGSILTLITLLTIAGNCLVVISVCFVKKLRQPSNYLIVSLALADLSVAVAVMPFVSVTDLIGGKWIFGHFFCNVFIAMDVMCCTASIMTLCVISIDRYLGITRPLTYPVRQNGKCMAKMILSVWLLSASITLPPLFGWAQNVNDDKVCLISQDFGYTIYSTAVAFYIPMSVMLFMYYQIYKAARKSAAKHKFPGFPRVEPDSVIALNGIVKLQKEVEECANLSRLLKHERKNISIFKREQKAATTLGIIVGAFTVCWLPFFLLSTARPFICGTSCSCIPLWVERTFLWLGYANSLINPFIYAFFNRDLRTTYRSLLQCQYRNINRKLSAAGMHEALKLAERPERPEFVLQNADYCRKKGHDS
(§1) The data were analyzed using GraphPad Prism software v4.0 (GraphPad Software Inc., San Diego, CA). Receptor density (Bmax) and the dissociation constant (Kd) of the radioligand were determined by nonlinear regression curve fitting of saturation binding curves to a one-site binding (hyperbola) model. […] The IC50 values were determined by nonlinear regression curve fitting to sigmoidal dose–response or sigmoidal dose–response (variable slope) models, as indicated. […] Results are expressed as the mean values ± SEM from the number of independent experiments indicated. Prediction of log of octanol/water partition coefficient (xlog P) values were retrieved from ZINC database (http://zinc.docking.org/) (Irwin et al. [2012]).

Series [4] has as its system isolated guinea pig ileum. On the set-up: method as in Leopoldo et al. [2008]. Particulars: ex vivo; ref Leopoldo et al. [2008]; cited from earlier work.
Series [5] relates to mice. The arrangement: method as in Adriani et al. [2012]. Particulars: ref Adriani et al. [2012]; cited from earlier work.
The subject of series [6] is wild type and 5-HT7 knock-out mice. The arrangement: method as in Hedlund et al. [2010]. Particulars: ref Hedlund et al. [2010]; cited from earlier work.
Series [7] has as its target 5-HT1A. Particulars: ref Leopoldo et al. [2008], cited from earlier work.
In series [8] the target is T1, human 5-HT7(a) receptor. Description: Membrane homogenate [^3H]-SB-269970 radioligand binding. Particulars: for Hill slope nH (membrane homogenate radioligand binding): [^3H]-SB-269970 competition, best fit model (nH = 1 or variable slope). The protocol: Cell membrane homogenate was prepared as previously described (Varin et al. [2010]). […] After incubation, the reactions were stopped by filtration in a harvester apparatus through GF/B filters pretreated with 0.25% (w/v) poly(ethyleneimine) solution. Filters were counted in a LS-6000LL beta counter (Beckman Coulter, Inc., Fullerton, CA, USA).
as §1

Series [9] addresses rat 5-HT7 receptors. On the set-up: method as in Leopoldo et al. [2008]; Hedlund et al. [2010]. Particulars: cloned in cell lines; ref Leopoldo et al. [2008]; Hedlund et al. [2010]; cited from earlier work.
Series [10] concerns the target D2. On the set-up: method as in Leopoldo et al. [2008]. Particulars: ref Leopoldo et al. [2008]; cited from earlier work.
Series [11] deals with T1, human 5-HT7(a) receptor. Description: cAMP assay, agonist effects in HEK-hu5-HT7 cells. Format: cell-based. Particulars: 100 pmol/L to 10 μmol/L, data not shown. On the procedure: (§2) cAMP levels were quantified using the homogeneous time-resolved fluorescence (HTRF)-based cAMP dynamic kit (Cisbio, Bioassays, Codolet, France). […] In all cases, basal cAMP levels were determined in control wells in the absence of agonist. The effects of the compounds on forskolin-stimulated adenylate cyclase activity were evaluated either at a single concentration (parental HEK293 cells) or by using concentration–response curves (HEK-hu5-HT7 cells). Cells were incubated in the absence (control) or presence of the compounds, at the concentrations indicated, in assay buffer for 15 min at 37°C prior to the addition of forskolin and further incubation for 15 min. Basal cAMP levels were determined in control wells in the absence of forskolin. After proceeding with the subsequent assay steps according to the manufacturer's protocol, the fluorescence emission intensity ratio at 665/620 nm wavelength was measured in an Ultra Evolution 384 microplate reader (TECAN, Männedorf, Switzerland).

In series [12] the test system is forskolin-stimulated adenylate cyclase activity in HEK-hu5-HT7 cells. Put plainly: Forskolin-stimulated cAMP production, preincubation/washout experiments, HEK-hu5-HT7 cells. In kind it is cell-based. Particulars: Homo sapiens; 30 min preincubation, washout, then 10 μmol/L forskolin 15 min, n = 3; read-out: IC50, irrev, forskolin-stimulated adenylate cyclase activity. On the procedure:
(§3) After proceeding with the subsequent assay steps according to the manufacturer's protocol, fluorescence was measured as previously described.
(§4) The data were analyzed using GraphPad Prism software v4.0 (GraphPad Software Inc., San Diego, CA). Receptor density (Bmax) and the dissociation constant (Kd) of the radioligand were determined by nonlinear regression curve fitting of saturation binding curves to a one-site binding (hyperbola) model. […] The IC50 values were determined by nonlinear regression curve fitting to sigmoidal dose–response or sigmoidal dose–response (variable slope) models, as indicated. […] Results are expressed as the mean values ± SEM from the number of independent experiments indicated.
(In general: cAMP levels reflect the balance of adenylyl cyclase and phosphodiesterase activity.)

The test system is the same in series [13]. Put plainly: Forskolin-stimulated cAMP production in the presence of the compounds, HEK-hu5-HT7 cells. In kind it is cell-based. Particulars: Homo sapiens; 10 μmol/L forskolin, continuous presence of the compounds; read-out: IC50, inhibition of forskolin-stimulated adenylate cyclase activity. On the procedure: as §2
The data were analyzed using GraphPad Prism software v4.0 (GraphPad Software Inc., San Diego, CA). Receptor density (Bmax) and the dissociation constant (Kd) of the radioligand were determined by nonlinear regression curve fitting of saturation binding curves to a one-site binding (hyperbola) model. […] Results are expressed as the mean values ± SEM from the number of independent experiments indicated. […]

Series [14] deals with forskolin-stimulated adenylate cyclase activity in parental HEK293 cells. Put plainly: Forskolin-stimulated cAMP production in parental HEK293 cells. Format: cell-based, human. Particulars: 1 μmol/L or 10 μmol/L compound, parental HEK293 cells (Fig. 7 inset). On the procedure:
as §2

The subject of series [15] is rat trigeminal nucleus caudalis. On the set-up: method as in Martínez-García et al. [2011]. Particulars: ref Martínez-García et al. [2011]; cited from earlier work.
Series [16] addresses T2, human 5-HT7 receptors (Homo sapiens, UniProt P34969). Particulars: estimated from experiments with behavior not compatible with classical competitive binding; ref Leopoldo et al. [2008]; cited from earlier work.
Series [17] has as its system 5-HT1A. Put plainly: Literature affinity for 5-HT1A receptors. In kind it is binding. Particulars: reported 5-HT1A affinity versus 5-HT7 affinity of this study; ref Leopoldo et al. [2008].
In series [18] the target is T1, human 5-HT7(a) receptor. Put plainly: 5-CT-stimulated cAMP assay, preincubation/washout experiments, HEK-hu5-HT7 cells. In kind it is cell-based. Particulars: read-out: IC50, irrev, 5-CT-stimulated cAMP production. The protocol: as §3, §4
Series [19] deals with T1, human 5-HT7(a) receptor. Put plainly: Whole-cell [^3H]-SB-269970 radioligand binding (in the presence of the compounds). The protocol:
as §1

Series [20] deals with T1, human 5-HT7(a) receptor. Put plainly: 5-CT-stimulated cAMP assay in the presence of the compounds (antagonist curves, Schild analysis), HEK-hu5-HT7 cells. In kind it is cell-based. On the procedure: as §2, with “forskolin.” for “forskolin. After proceeding with the subsequent assay steps according to the manufacturer's protocol, the fluorescence emission intensity ratio at 665/620 nm wavelength was measured in an Ultra Evolution 384 microplate reader (TECAN, Männedorf, Switzerland).”
as §4

For series [21], the target named is T2, human 5-HT7 receptors. Description: [^3H]-LSD binding in membrane homogenates of HEK-hu5-HT7 cells.
The test system of series [22] is 5-HT7 receptors. The arrangement: method as in Lacivita et al. [2012]. Particulars: ref Lacivita et al. [2012]; cited from earlier work.

Structures are written as SMILES. Like-named read-outs stand apart in the source and are kept apart here.

T2 sequence (P34969 1-445 isoform P34969-2): as above

The term Ki denotes a dissociation constant, usually derived from enzyme kinetics or from competition with a known ligand. The IC50 is the concentration that inhibits the measured activity by half. For the compound `N#Cc1ccc(CNC(=O)CCCCCN2CCN(c3ccccc3-c3ccccc3)CC2)cc1` [LP-211, N-(4-cyanophenylmethyl)-4-(2-diphenyl)-1-piperazinehexanamide], the “Effect on long-term synaptic depression induced by metabotropic glutamate receptors” value in series [1] is “reverted long-term synaptic depression”. Also, in series [2], the “Metabolism in disposition studies” value is listed as “undergoes N-dealkylation to RA-7”. Further, in [3], the inhibition at 10 µM came to 95.03 ± 0.47%. Further, the “Effect on substance P-induced contraction in isolated guinea pig ileum” value in [4] is on record as “elicited relaxation of substance P-induced contraction”. For the same compound, the “Behavioural effect in mice (anxiety)” value in series [5] is “antianxiety-like effects”. Moreover, the “Effect on body temperature in wild type and 5-HT7 knock-out mice” value in series [6] is “induced hypothermia in wild type but not in 5-HT7 knock-out mice”. For the same compound, the results for the Ki in series [7] (Hedlund et al. [2010]), in series [9] and in [10] were 188 to 379 nM, 0.58 nM and 142 nM, respectively. The “Hill slope nH (membrane homogenate radioligand binding)” value in series [8] amounted to 1. Besides, the “Agonist effect on cAMP levels” value in series [11] is reported as “did not elicit any detectable increase in cAMP levels”. Also, the figures for the IC50 in series [12] and in series [13] were 13.9 ± 3.93 nM and 60.71 ± 0.48 nM, respectively. Besides, in series [14], the “Effect on forskolin-stimulated cAMP production in the parental cell line” value is listed as “no effect”. In [15], the “Effect on capsaicin-induced increase in Fos-like immunoreactivity” value is listed as “able to modulate the capsaicin-induced increase”.
As to `O=C(CCCCCN1CCN(c2ccccc2-c2ccccc2)CC1)NCc1ccccc1` [MEL-9, N-benzyl-4-(2-diphenyl)-1-piperazinehexanamide], the Ki is 0.8 nM in [16]; 503 nM in series [7]; 16.6 ± 0.99 nM in series [8] (2 nmol/L [^3H]-SB-269970, HEK-hu5-HT7 membrane homogenate, 60 min 37°C, read-out: 5-HT7 affinity (membrane homogenate radioligand binding) Ki); 161 nM in [10]; 13.8 ± 0.24 nM in series [19] (read-out: 5-HT7 affinity (whole-cell radioligand binding) Ki); 37.9 ± 11.3 nM in series [21] (n = 3, data not shown, read-out: Ki, displacement of [^3H]-LSD binding). Also, the IC50 in series [3] (30 min preincubation, washout, then 2 nmol/L radioligand) was determined as 22.4 ± 7.63 nM; in series [18], 41.8 ± 18 nM; in series [12], 11.2 ± 3.25 nM; in series [20] it was 27.8 ± 6.72 nM; in series [13], 19.3 ± 8.18 nM. The inhibition at 10 µM in series [3] turned out to be 97.2 ± 0.23%. Also, the “Fold lower affinity for 5-HT1A receptors than for 5-HT7 receptors” value in [17] was 9.7 fold. In series [8] (2 nmol/L [^3H]-SB-269970, HEK-hu5-HT7 membrane homogenate), the “5-HT7 affinity (membrane homogenate radioligand binding) pKi” value is on record as 7.78. Moreover, the “Hill slope nH (membrane homogenate radioligand binding)” value in series [8] is reported as 1.34 ± 0.14. Further, the “Agonist effect on cAMP levels” value in series [11] is “did not elicit any detectable increase in cAMP levels”. The “nH, displacement of [^3H]-LSD binding” value in series [21] (data not shown) came out at 1.11 ± 0.19. In addition, the “Effect on forskolin-stimulated cAMP production in the parental cell line” value in [14] is “no effect”.
Turning to `c1ccc(-c2ccccc2N2CCNCC2)cc1` [RA-7, 1-(2-biphenyl)piperazine], in [3] (10 μmol/L, 30 min at 37°C, time t = 0 after washout), the “Inhibition of specific binding of [^3H]-SB-269970 after preincubation and washout” value is reported as roughly 50%. Moreover, the “Duration of inhibition of [^3H]-SB-269970 binding after compound removal” value in series [3] (preincubation with 10 μmol/L, recovery followed at 0, 1, 3, 6 and 24 h) is recorded as “at least 24 h”. Besides, the inhibition at 10 µM in series [3] was 54.8 ± 5.15%. Also, in [22], the “Action at 5-HT7 receptors in HeLa cells” value is listed as “high-affinity receptor 5-HT7 antagonist”. In addition, the remaining activity at 10 µM in [19] (read-out: [^3H]-SB-269970 specific binding (percent of control), competitive whole-cell binding, 10 μmol/L, n = 3) was determined as 0.64 ± 0.44%.
